The assay in a line: Inhibition of VEGFR2 in HUVEC assessed as reduction of VGF-stimulated cell proliferation after 5 days.

Among the data in BindingDB's records for doi:10.1016/j.bmc.2012.07.032 (Takeda Pharmaceutical, 2012) are IC50 values, retold here.

pIC50: −log10 of the molar value.

For orientation: pIC50 means the negative decadic logarithm of the IC50, by convention in mol/L.

For the compound `CN(c1ccc(F)c(NC(=O)c2cccc(OC(C)(C)C#N)c2Cl)c1)c1ccc2nc(NC(=O)C3CC3)sc2n1`, the pIC50 is 8.92.
